Drawing on ChEMBL document CHEMBL5727360, “BCL-2 inhibitors” (2019), this text covers IC50 for 3 compounds.

Chain of Apoptosis regulator Bcl-2 (P10415 whole entry): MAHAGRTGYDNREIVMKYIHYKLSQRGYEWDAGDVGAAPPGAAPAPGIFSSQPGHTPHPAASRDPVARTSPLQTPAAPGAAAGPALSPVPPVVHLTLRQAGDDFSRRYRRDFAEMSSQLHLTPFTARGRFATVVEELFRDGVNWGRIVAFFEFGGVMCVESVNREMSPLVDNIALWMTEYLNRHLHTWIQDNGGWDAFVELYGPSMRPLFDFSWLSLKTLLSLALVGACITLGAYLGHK

The test concerns the target Apoptosis regulator Bcl-2 (Homo sapiens, UniProt P10415). As to the kind of experiment: Bcl-2 Competition Binding (Fluorescence Polarization) Assay: The fluorescence-labeled 23 amino acid peptide BH3 was purchased from CalBiochem ([…], SEQ ID NO: 1). An unbound Fluorescein labeled BH3 peptide emits random light with respect to the plane of polarization plane of excited light, resulting in a lower polarization degree (mP) value. When the peptide is bound to Bcl-2, the complex tumble slower and the emitted light can have a higher level of polarization, resulting in a higher mP value. This binding assay was performed in 96-well plate and with each assay contained 15 and 30 nM of labeled peptide and purified Bcl-2 protein (purchased from R&D Systems, Inc). The assay buffer contained 20 mM Hepes (pH 7.0), 50 mM KCl, 5 mM MgCl2, 20 mM Na2MoO4, 0.1 mg/ml Bovine Gamma Globulin and 0.01% NP40. Compounds were diluted in DMSO and added to the final assay with concentration range from 20 uM to 2 nM. The polarization degree (mP) value was determined by BioTek Synergy II with background subtraction after 3 hours of incubation at room temperature. IC50 was calculated using Prism software with sigmoidal dose-response curve fitting. ABT-737 was used as reference compound. Such assays, carried out with a range of doses of test compounds, allow the determination of an approximate IC50 value.
A word on the IC50: it is the midpoint of a concentration-inhibition curve. Turning to `CN1CCC(F)(COc2ccc(S(=O)(=O)NC(=O)c3ccc(N4CCN(CC5=C(c6ccc(Cl)cc6)CC(C)(C)CC5)CC4)cc3-n3ncc4nc5[nH]ccc5cc43)cc2[N+](=O)[O-])CC1`, the concentration for half-maximal inhibition (IC50) is less than 0.01 µM.
For the compound `CC1(C)CCC(CN2CCN(c3ccc(C(=O)NS(=O)(=O)c4ccc(NCCCN5CCOCC5)c([N+](=O)[O-])c4)c(-n4ncc5nc6[nH]ccc6cc54)c3)CC2)=C(c2ccc(Cl)cc2)C1`, the half-maximal inhibitory concentration (IC50) was less than 0.01 µM.
To `CC1(C)CCC(CN2CCN(c3ccc(C(=O)NS(=O)(=O)c4ccc(NC5CCN(C6CCOCC6)CC5)c([N+](=O)[O-])c4)c(-n4ncc5nc6[nH]ccc6cc54)c3)CC2)=C(c2ccc(Cl)cc2)C1` belongs less than 0.01 µM.
